Earlier results in US20040067267A1, “Process for preparation of cholesterol lowering compositions from garlic” (priority 2002, published 2004).

What was measured:
HMG CoA reductase = target: T1, HMG CoA reductase (Homo sapiens, UniProt P04035); settings: for lowering of plasma LDL cholesterol levels: alone; for decrease of LDL levels: given along with bile acid binding resin (Bilheimer et al 1983)
T1 sequence (P04035 1-888): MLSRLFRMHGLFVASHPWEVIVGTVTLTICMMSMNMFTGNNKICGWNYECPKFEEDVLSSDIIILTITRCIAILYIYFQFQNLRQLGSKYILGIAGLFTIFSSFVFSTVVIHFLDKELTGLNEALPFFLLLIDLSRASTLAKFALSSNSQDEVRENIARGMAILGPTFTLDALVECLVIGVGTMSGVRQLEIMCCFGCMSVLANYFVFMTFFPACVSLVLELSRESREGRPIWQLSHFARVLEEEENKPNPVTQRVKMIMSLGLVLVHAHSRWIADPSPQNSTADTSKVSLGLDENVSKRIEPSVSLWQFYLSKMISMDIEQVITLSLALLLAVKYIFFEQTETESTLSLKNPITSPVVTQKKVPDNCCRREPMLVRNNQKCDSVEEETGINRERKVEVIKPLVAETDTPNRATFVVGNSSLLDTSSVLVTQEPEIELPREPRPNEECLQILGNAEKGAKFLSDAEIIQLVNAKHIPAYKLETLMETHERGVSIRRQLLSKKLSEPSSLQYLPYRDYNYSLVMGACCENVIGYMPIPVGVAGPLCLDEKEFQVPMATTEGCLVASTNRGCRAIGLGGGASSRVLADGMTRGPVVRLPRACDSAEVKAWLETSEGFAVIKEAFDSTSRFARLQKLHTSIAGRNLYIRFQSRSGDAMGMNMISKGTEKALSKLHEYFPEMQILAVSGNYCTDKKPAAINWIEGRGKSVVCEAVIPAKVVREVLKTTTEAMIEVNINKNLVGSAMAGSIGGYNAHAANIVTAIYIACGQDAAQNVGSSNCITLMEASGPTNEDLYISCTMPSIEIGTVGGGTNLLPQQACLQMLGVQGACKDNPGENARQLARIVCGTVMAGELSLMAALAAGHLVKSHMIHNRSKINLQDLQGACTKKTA

[1] = patients with primary hypercholesterolemia (Hoeg et al. 1984)

Molecule | oral LD 50, female (mice) [mg/kg b.wt] | oral LD 50, male (mice) [mg/kg b.wt] | lowering of plasma LDL cholesterol levels (HMG CoA reductase) [%] | decrease of LDL levels (HMG CoA reductase) [%] | reduction of LDL cholesterol [1]
C=CCSSCC=C [diallyldisulfide] | 130 | 145 | – | – | –
C=CCSCC=C [diallyl sulfide] | 1805 | 2029 | – | – | –
C=CCS[S+]([O-])CC=C (stereo not shown) [allicin] | 363 | 309 | – | – | –
mevinolin | – | – | 30 | 50 | –
C=CCSC[C@H](N)C(=O)O [s-allyl-L-cysteine] | 9390 | 8890 | – | – | –
CC[C@H](C)C(=O)O[C@H]1CCC=C2C=C[C@H](C)[C@H](CC[C@@H]3C[C@@H](O)CC(=O)O3)[C@H]21 [Compaction] | – | – | 30 | 50 | –
NC[C@@H]1O[C@H](O[C@H]2[C@@H](O)[C@H](O[C@@H]3[C@@H](O)[C@H](N)C[C@H](N)[C@H]3O[C@H]3O[C@H](CN)[C@@H](O)[C@H](O)[C@H]3N)O[C@@H]2CO)[C@H](N)[C@@H](O)[C@@H]1O [Neomycin] | – | – | – | – | 15-20%
